From US9365558B2 (BRISTOL-MYERS SQUIBB COMPANY, priority 2013, dated 2016)

Target: Human MGAT-2 (Homo sapiens (Human), UniProt Q3SYC2)
Assay: MGAT LCMS Assay
Assay type: biochemical
Conditions: recombinant MGAT-2 membranes expressed in Sf9 cells; 100 μM 2-oleoylglycerol, 15 μM oleoyl-Coenzyme A; LC/MS of diolein; read-out: h-MGAT LCMS IC50
Description: Assay plates were run through a fully automated robotics system and shaken for 5 seconds every minute for a total 10 minutes. The reactions were then quenched with 120 μL of ice cold methanol containing 1 μg/mL 1,2-distearoyl-rac-glycerol as the internal standard. Plates were shaken for 2 minutes and spun down to remove protein precipitation. After the spin, samples were transferred to LC/MS compatible PCR plates. For LC/MS analysis, a ThermoFisher Surveyor pump, utilizing a Waters Symmetry C8, 50×2.1 mm column, was used for the chromatography of enzyme products. The buffer system consists of 0.1% formic acid in water with a mobile phase consisting 0.1% formic acid in methanol. The shallow gradient is 90-100% mobile phase in 0.2 min with a total run time of 2.3 min. The first 0.5 minutes of each injection was diverted to waste to eliminate the presence of Phosphate buffer in the enzymatic reaction. The column was run at 0.6 mL/min and a temperature of 65° C. Mass spectrometry analysis of the samples was performed on a ThermoFisher Quantum Triple quad utilizing APCI (+) as the mode of ionization. […] The ratio of Diolein to internal standard (Peak Area Ratio) is utilized to calculate IC50 values.

Sequence of Human MGAT-2 (Q3SYC2 whole entry): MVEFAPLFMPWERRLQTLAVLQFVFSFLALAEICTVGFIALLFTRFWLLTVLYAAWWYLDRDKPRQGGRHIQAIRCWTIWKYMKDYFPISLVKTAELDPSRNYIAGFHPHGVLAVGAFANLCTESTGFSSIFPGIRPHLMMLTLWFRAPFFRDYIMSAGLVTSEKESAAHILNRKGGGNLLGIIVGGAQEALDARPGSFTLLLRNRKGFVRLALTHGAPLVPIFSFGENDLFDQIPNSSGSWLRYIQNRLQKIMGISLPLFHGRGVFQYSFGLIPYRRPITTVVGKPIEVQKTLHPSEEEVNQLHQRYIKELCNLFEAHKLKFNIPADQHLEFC

With `C[C@@]1(c2ccc(OCCCC(F)(F)F)cc2)CC(c2ccn(CC3CC3)n2)=C(C(=O)NS(=O)(=O)C2CC2)C(=O)N1` [Example 60] the IC50 was 34 nM.

In the case of `O=C1N[C@@](c2ccc(OCCCC(F)(F)F)cc2F)(C(F)(F)F)CC(c2ccn(CC3CCC3)n2)=C1C(=O)NS(=O)(=O)C1CC1` [Example 57], the IC50 is reported as 37 nM.

`CS(=O)(=O)NC(=O)C1=C(c2ccn(CC3CC3)n2)C[C@](c2ccc(OCCCC(F)(F)F)cc2)(C(F)(F)F)NC1=O` [Example 91] showed an IC50 of 23 nM.

For `CCCCCCCc1cnc([C@]2(C(F)(F)F)CC(c3ccc(C)cc3)=C(C(=O)NS(=O)(=O)C3CC3)C(=O)N2)s1` [Example 40], the IC50 was 2 nM.

For `CCOc1ccc(C2=C(C(=O)NS(C)(=O)=O)C(=O)N[C@@](c3ccc(OCCCC(F)(F)F)cc3F)(C(F)(F)F)C2)cc1` [Example 97], the IC50 was 42 nM.

Compound `CCCCCCC#C[C@]1(C(F)(F)F)CC(c2ccc(OC(F)F)cc2)=C(C(=O)NS(C)(=O)=O)C(=O)N1` [Example 12] has an IC50 of 24 nM.

`CS(=O)(=O)NC(=O)C1=C(c2ccc(C3CC3)s2)C[C@](c2ccc(OCCCC(F)(F)F)cc2)(C(F)(F)F)NC1=O` [Example 64] showed an IC50 of 6 nM.

In the case of `COc1ccc(C2=C(C(=O)NS(=O)(=O)N(C)C)C(=O)N[C@@](c3ccc(OCCCC(F)(F)F)cc3)(C(F)(F)F)C2)cc1` [Example 35], the IC50 is reported as 353 nM.

`CS(=O)(=O)NC(=O)C1=C(c2ccc(C3CC3)cc2)C[C@](c2ccc(OCCCCCC(F)(F)F)cc2F)(C(F)(F)F)NC1=O` [Example 68] was tested, and the IC50 was 1 nM.

Work on `Cc1ccc(C2=C(C(=O)NS(=O)(=O)C3CC3)C(=O)N[C@@](c3cnn(CCCCCC(F)(F)F)c3)(C(F)(F)F)C2)cc1` [Example 93] yielded an IC50 of 179 nM.

`CCS(=O)(=O)NC(=O)C1=C(c2ccc(OC(F)F)cc2)C[C@](c2ccc(OCCCCCC(F)(F)F)cc2)(C(F)(F)F)NC1=O` [Example 8] showed an IC50 of 33 nM.

`CC(C)Cn1ccc(C2=C(C(=O)NS(=O)(=O)C3CC3)C(=O)N[C@@](c3ccc(OCCCC(F)(F)F)cc3F)(C(F)(F)F)C2)n1` [Example 55] was tested, and the IC50 was 62 nM.

With `O=C1N[C@@](c2ccc(OCCCC(F)(F)F)cc2F)(C(F)(F)F)CC(c2ccn(C3CCC3)n2)=C1C(=O)NS(=O)(=O)C1CC1` [Example 45] the IC50 was 17 nM.

In the case of `CCn1ccc(C2=C(C(=O)NS(=O)(=O)C3CC3)C(=O)N[C@@](c3ccc(CCCCC(F)(F)F)cc3F)(C(F)(F)F)C2)n1` [Example 53], the IC50 is reported as 89 nM.

With `CN(C)c1ccc(C2=C(C(=O)NS(C)(=O)=O)C(=O)N[C@@](c3ccc(OCCCC(F)(F)F)cc3)(C(F)(F)F)C2)cc1` [Example 25] the IC50 was 24 nM.

Compound `CN(C)c1ccc(C2=C(C(=O)NS(=O)(=O)C3CC3)C(=O)N[C@@](c3ccc(OCCCCCC(F)(F)F)cc3)(C(F)(F)F)C2)cc1` [Example 4] has an IC50 of 17 nM.

For `CCCCCCC#C[C@]1(C(F)(F)F)CC(c2ccc(C)cc2)=C(C(=O)NS(C)(=O)=O)C(=O)N1` [Example 15], the IC50 was 4 nM.

`O=C1N[C@@](c2ccc(OCCCC(F)(F)F)cc2F)(C(F)(F)F)CC(c2ccn(CC3CC3)n2)=C1C(=O)NS(=O)(=O)C1CC1` [Example 56] was tested, and the IC50 was 13 nM.

`O=C1N[C@@](c2ccc(CCCCC(F)(F)F)cc2F)(C(F)(F)F)CC(c2ccn(CC3CC3)n2)=C1C(=O)NS(=O)(=O)C1CC1` [Example 52] gave an IC50 of 10 nM.

`Cc1ccc(C2=C(C(=O)NS(C)(=O)=O)C(=O)N[C@@](c3ccc(OCCCCCC(F)(F)F)cc3)(C(F)(F)F)C2)cc1` [Example 9] showed an IC50 of 16 nM.

Work on `O=C1N[C@@](c2ccc(CCCCC(F)(F)F)cc2)(C(F)(F)F)CC(c2ccn(C3CC3)n2)=C1C(=O)NS(=O)(=O)C1CC1` [Example 76] yielded an IC50 of 72 nM.

`O=C1N[C@@](c2ccc(OCCCC(F)(F)F)cc2)(C(F)(F)F)CC(c2ccn(CC3CC3)n2)=C1C(=O)NS(=O)(=O)C1CC1` [Example 88] was tested, and the IC50 was 67 nM.

`O=C1N[C@@](c2ccc(OCCCC(F)(F)F)cc2)(C(F)(F)F)CC(c2ccn(C3CC3)n2)=C1C(=O)NS(=O)(=O)C1CC1` [Example 87] gave an IC50 of 98 nM.

`COc1ccc(C2=C(C(=O)NS(=O)(=O)C3CC3)C(=O)N[C@@](c3ccc(OCCCCCC(F)(F)F)cc3)(C(F)(F)F)C2)cn1` [Example 18] was tested, and the IC50 was 52 nM.

For `Cc1ccc(C2=C(C(=O)NS(C)(=O)=O)C(=O)N[C@](C)(CCC(C)C)C2)cc1` [Example 24], the IC50 was 114 nM.

`CC(C)n1ccc(C2=C(C(=O)NS(C)(=O)=O)C(=O)N[C@@](c3ccc(OCCCC(F)(F)F)cc3F)(C(F)(F)F)C2)n1` [Example 43] showed an IC50 of 20 nM.

Work on `CC(C)(C)c1ccc(C2=C(C(=O)NS(C)(=O)=O)C(=O)N[C@](C)(c3ccc(OCCCC(F)(F)F)cc3)C2)cc1` [Example 85] yielded an IC50 of 27 nM.

`CC(C)(C)c1ccc(C2=C(C(=O)NS(=O)(=O)C3CC3)C(=O)N[C@@](c3ccc(OCCCCCC(F)(F)F)cc3)(C(F)(F)F)C2)cc1` [Example 20] was tested, and the IC50 was 4 nM.

`CS(=O)(=O)NC(=O)C1=C(c2ccn(C3CCC3)n2)C[C@](c2ccc(OCCCC(F)(F)F)cc2F)(C(F)(F)F)NC1=O` [Example 44] was tested, and the IC50 was 7 nM.

`O=C1N[C@@](c2ccc(OCCCCC(F)(F)F)cc2)(C(F)(F)F)CC(c2ccc(C3CC3)s2)=C1C(=O)NS(=O)(=O)C1CC1` [Example 62] was tested, and the IC50 was 8 nM.

For `CCS(=O)(=O)NC(=O)C1=C(c2ccc(C)cc2)C[C@](c2ccc(OCCCC(F)(F)F)cc2)(C(F)(F)F)NC1=O` [Example 19], the IC50 was 17 nM.

In the case of `O=C1N[C@@](c2cnn(CC/C=C/CCC(F)(F)F)c2)(C(F)(F)F)CC(c2ccc3c(c2)CCCC3)=C1C(=O)NS(=O)(=O)C1CC1` [Example 95], the IC50 is reported as 88 nM.

Work on `Cc1ccc(C2=C(C(=O)NS(=O)(=O)c3ccccc3)C(=O)N[C@@](c3ccc(OCCCC(F)(F)F)cc3)(C(F)(F)F)C2)cc1` [Example 29] yielded an IC50 of 84 nM.

With `CS(=O)(=O)NC(=O)C1=C(c2ccn(CC3CCC3)n2)C[C@](c2ccc(OCCCC(F)(F)F)cc2)(C(F)(F)F)NC1=O` [Example 90] the IC50 was 8 nM.

Work on `COc1ccc(C2=C(C(=O)NS(=O)(=O)C3CC3)C(=O)N[C@@](c3ccc(OCCCC(F)(F)F)cc3)(C(F)(F)F)C2)cc1` [Example 27] yielded an IC50 of 8 nM.

With `O=C1N[C@@](c2ccc(OCCCCCC(F)(F)F)cc2)(C(F)(F)F)CC(c2ccn(CC3CC3)n2)=C1C(=O)NS(=O)(=O)C1CC1` [Example 79] the IC50 was 3 nM.

With `Cc1ccc(C2=C(C(=O)NS(=O)(=O)C3CC3)C(=O)N[C@@](c3ccc(OCCCC(F)(F)F)cc3Cl)(C(F)(F)F)C2)cc1` [Example 69] the IC50 was 9 nM.

For `CS(=O)(=O)NC(=O)C1=C(c2ccc3c(c2)CCC3)C[C@](c2ccc(OCCCC(F)(F)F)cc2F)(C(F)(F)F)NC1=O` [Example 66], the IC50 was 22 nM.

`COc1ccc(C2=C(C(=O)NS(C)(=O)=O)C(=O)N[C@@](c3ccc(OCCCCCC(F)(F)F)cc3F)(C(F)(F)F)C2)cc1` [Example 36] showed an IC50 of 52 nM.

Compound `[2H]C1([2H])C(c2ccc(OC)cc2)=C(C(=O)NS(=O)(=O)C2CC2)C(=O)N[C@@]1(c1ccc(OCCCCCC(F)(F)F)cc1F)C(F)(F)F` [Example 99] has an IC50 of 4 nM.
